Data on 9 compounds can be found in US4728656A, “2,2-alkyldiylbis(thio)bis(imidazoles) useful for inhibition of the 5-lipoxygenase pathway” (SmithKline Beckman Corporation, priority 1986, dated 1988).

Test [1] concerns LTB4 and 5-HETE production. Conditions: in vitro; Stenson et al.; cited from earlier work.
In the next test the test system is rheumatoid arthritis. The note with it: preliminary observation; Neumann et al.; cited from earlier work.
The next test deals with T1, 5-Lipoxygenase (Rattus norvegicus, UniProt P12527).
T1 construct: The broken cell extract was then centrifuged at 10,000×g for 20 minutes (min) and the supernatant centrifuge at 100,000×g for 60 min; host or cells: RBL-1 cells, high speed (100,000×g) supernatant
T1 sequence (P12527 1-673): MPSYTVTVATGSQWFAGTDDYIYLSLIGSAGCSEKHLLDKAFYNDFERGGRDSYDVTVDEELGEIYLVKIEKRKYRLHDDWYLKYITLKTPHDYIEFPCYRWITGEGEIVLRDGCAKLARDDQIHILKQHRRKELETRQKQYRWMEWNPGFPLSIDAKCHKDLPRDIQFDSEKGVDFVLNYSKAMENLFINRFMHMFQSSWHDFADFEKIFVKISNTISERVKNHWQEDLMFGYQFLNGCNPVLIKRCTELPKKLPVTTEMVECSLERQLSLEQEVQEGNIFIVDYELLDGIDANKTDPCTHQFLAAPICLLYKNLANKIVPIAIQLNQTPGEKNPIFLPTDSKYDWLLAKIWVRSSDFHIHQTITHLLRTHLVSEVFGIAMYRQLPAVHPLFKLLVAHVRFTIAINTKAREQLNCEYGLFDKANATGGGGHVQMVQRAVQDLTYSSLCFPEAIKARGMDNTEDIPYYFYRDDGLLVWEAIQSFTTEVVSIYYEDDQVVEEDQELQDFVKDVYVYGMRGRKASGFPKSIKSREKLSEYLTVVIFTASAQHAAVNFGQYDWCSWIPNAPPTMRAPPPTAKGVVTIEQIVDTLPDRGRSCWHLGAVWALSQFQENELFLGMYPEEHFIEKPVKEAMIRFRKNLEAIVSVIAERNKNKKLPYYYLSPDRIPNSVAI
Put plainly: Assay of 5-lipoxygenase activity in RBL-1 cell extract (high speed supernatant). The note with it: 25 μM arachidonic acid, 5 min at 37° C. The class given is biochemical. Here is the method: For in vitro experiments, compounds were dissolved at appropriate concentrations in ethanol (final concentration 1.0%) and then diluted to final concentrations using the buffers indicated in the text.
The activities of these enzymes in extracts of RBL-1 cells were assayed using the method of Jakschik and Lee, Nature, 287, 51-52 (1980). RBL--1 cells were obtained from the American Type Culture Collection (#CRL 1378) and were grown at 37° C. (5% CO2 in air) in spinner culture in MEM supplemented with 10% heat inactivated fetal calf serum. Harvested cells were washed with 50 mM sodium phosphate buffer, pH 7.0, containing 1 mM EDTA and 0.1% gelatin, resuspended in fresh buffer (5×10^7 cells/ml) and disrupted by nitrogen cavitation using the Parr bomb at 750 psi for 10 min. The broken cell extract was then centrifuged at 10,000×g for 20 minutes (min) and the supernatant centrifuge at 100,000×g for 60 min. Aliquots (0.25 mls) of the supernatant were preincubated with or without drugs for 10 min, after which 12 mM CaCl2 was added and the reaction was initiated with […] arachidonic acid-1-^14 C (final concentration was 25 μM; specific activity 20,000 dpm/nmole). After incubation for 5 min at 37° C., the reaction was terminated by addition of 2 volumes (0.5 ml) ice cold acetone and the sample was allowed to deproteinize on ice for 10 min prior to centrifugation at 1,000×g for 10 min. The deproteinized supernatant was adjusted to pH 3.5 with 2N formic acid and extracted with 2 volumes of ice cold ethyl acetate. The extracted samples were dried under argon, redissolved in ethyl acetate and applied to Whatman LK5D thin layer chromatography (TLC) plates which were developed using the A-9 solvent system [organic phase of ethyl acetate: 2,2,5-trimethylpentane:acetic acid:water (110:50:20:10)] described by Hamberg and Samuelsson, J. Biol. Chem., 241, 257-263 (1966). Arachidonic acid, 5-HETE, LTB4 and PGD2 were quantified with a Berthold LB 2832 autoscanner.
Under these conditions, only the 5-lipoxygenase pathway metabolites were detectable. The 5-HETE and di-HETEs were formed at a linear rate, and substantial amounts of the arachidonic acid-1-^14 C substrate were utilized.
Drug-induced effects on enzyme activities are described as the concentration of drug causing a 50% inhibition of metabolite synthesis (IC50).

The test system of the next test is myocardial infarction. The note with it: dogs; Mollane et al.; cited from earlier work.
Test [2] deals with Arachidonic Acid-Induced Mouse Ear Inflammation. Put plainly: Arachidonic acid-induced mouse ear inflammation (ear swelling). The note with it: p.o. The class given is in vivo, male Balb/c mice. Further details: key to % Inhibition of Ear Swelling: *: p < .05; **: p < .01; ***: p < .001; NS: not significant. Here is the method: In the following Examples male Balb/c mice (20-28 g) were used. All mice were obtained from Charles River Breeding Laboratories, Kingston, N.Y. Within a single experiment, mice were sex and age matched.
Compounds of Formula (I), indomethacin, naproxen, and ibuprofen were each used as the free base. The compounds were homogenized in 0.5% tragacanth. Compounds were administered by gavage at the indicated dose in a final volume of 10 ml/kg.
Arachidonic acid in acetone (2 mg/20 μl ) was applied to the inner surface of the left ear. The thickness of both ears was then measured with a dial micrometer one hour after treatment, and the data were expressed as the change in thickness (10^-3 cm) between treated and untreated ears.
Test compounds were given orally in 0.5% tragacanth at the times indicated in the text prior to the topical application of arachidonic acid.
Parenteral administration of compound was accomplished by subcutaneous injection of solution as indicated.

In the next test the test system is psoriasis. Conditions: Allen et al.; cited from earlier work.
The next test relates to lipoxygenase. Conditions: in vitro; cited from earlier work.
Setting [3] is: 5HETE production by RBL1 high speed supernatant, read-out: 5-HETE IC50.
[4] abbreviates: LTB4 production by RBL1 high speed supernatant, read-out: LTB4 IC50.

What is called IC50 is the concentration needed to halve the response being measured.

Like-named read-outs stand apart in the source and are kept apart here.

Take `O=C(O)c1cc(/N=N/c2ccc(S(=O)(=O)Nc3ccccn3)cc2)ccc1O` [Sulfasalazine]: the “inhibition of LTB4 and 5-HETE production” value in test [1] is “inhibit LTB4 and 5-HETE production in vitro”. Besides, the “efficacy in rheumatoid arthritic patients” value with rheumatoid arthritis is reported as “efficacy, including remission”.
For the compound `Fc1ccc(-c2nc(SCCSc3nc(-c4ccc(F)cc4)c(-c4ccc(F)cc4)[nH]3)[nH]c2-c2ccc(F)cc2)cc1` [Compound 1, 2,2'-[ethanediylbis(thio)]bis[4,5-bis(4-fluorophenyl)-1H-imidazole]], the IC50 came to 18.5 µM at 5-Lipoxygenase (setting [3]) and 3.3 µM at 5-Lipoxygenase (setting [4]).
As to `NC1=NN(c2cccc(C(F)(F)F)c2)CC1` [BW755-C], in the test with myocardial infarction, the “area of infarction following coronary occlusion” value is recorded as “reduced” and the “leukocyte infiltration into the ischaemic tissue” value is listed as “inhibition of leukocyte infiltration into the ischaemic tissue”.
As for `COc1ccc2c(c1)c(CC(=O)O)c(C)n2C(=O)c1ccc(Cl)cc1` [indomethacin], in test [2] (10 mg/kg), the antiinflammatory activity entry is “did not exhibit detectaole antiinflammatory activity”.
Turning to `CC(C)Cc1ccc(C(C)C(=O)O)cc1` (stereo not shown) [ibuprofen], the antiinflammatory activity result in test [2] (250 mg/kg) is given as “did not exhibit detectaole antiinflammatory activity”.
As for `COc1ccc2cc([C@H](C)C(=O)O)ccc2c1` [naproxen], the antiinflammatory activity result in test [2] (100 mg/kg) is listed as “did not exhibit detectaole antiinflammatory activity”.
For `CC(C(=O)O)c1ccc2oc(-c3ccc(Cl)cc3)nc2c1` (stereo not shown) [benoxaprofen], the effect on psoriasis entry in the test with psoriasis is recorded as “promising effect”. The lipoxygenase inhibitory activity result with lipoxygenase was “in vitro lipoxygenase inhibitory activity”.
Consider `O=C(CSc1nc(-c2ccc(F)cc2)c(-c2ccncc2)[nH]1)CSc1nc(-c2ccc(F)cc2)c(-c2ccncc2)[nH]1` [Compound 2, 2-2'-[1,3-propan-2-onediylbis(thio)]bis[5-(4-pyridyl)-4-(4-fluorophenyl)-1H-imidazole]], for which the figures for the half-maximal inhibitory concentration (IC50) on 5-Lipoxygenase (setting [3]) and at 5-Lipoxygenase (setting [4]) were 1.7 µM and 0.65 µM, respectively. The “% Inhibition of Ear Swelling” value in test [2] (Table I, 2 mg arachidonic acid, thickness 1 h after treatment) is reported as “NS”.
Consider `O=C(CSc1nc(-c2ccc(F)cc2)c(-c2ccc(F)cc2)[nH]1)CSc1nc(-c2ccc(F)cc2)c(-c2ccc(F)cc2)[nH]1` [Compound 3, 2,2'-[1,3-propan-2-onediylbis(thio)]bis[4,5-bis-(4-fluorophenyl)-1H-imidazole]], for which the IC50 was determined as 5.3 µM at 5-Lipoxygenase (setting [3]) and 1.6 µM at 5-Lipoxygenase (setting [4]).
